Test results as given in PMC10907560, “Significant reduction of activity retention in the kidneys via optimized linker sequences in radiohybrid-based minigastrin analogs” (EJNMMI Research, 2024).
Several values for one entry are separate records, joined by “and”; a condition that tells them apart may be missing. Equal values may be shown once. Numbered stars: 1 amine (or outer) side, 2 acyl side, 3 side chain; on linkers, the order of the positions; unused ones are H or OH. Square brackets hold non-standard residues; d marks the D form. Peptide text beside a SMILES is read from it. * marks the point of attachment. Benzoyl(4-SiFtBu2) = CC(C)(C)[Si](F)(c1ccc(C(=O)*)cc1)C(C)(C)C; DOTA = O=C(O)CN1CCN(CC(=O)O)CCN(CC(=O)*)CCN(CC(=O)O)CC1; PEG12 = NCCOCCOCCOCCOCCOCCOCCOCCOCCOCCOCCOCCOCCC(=O)O; d(γGlu) = O=C(O)[C@@H](CCC(=O)[*:2])N[*:1]; PEG8 = NCCOCCOCCOCCOCCOCCOCCOCCOCCC(=O)O; 1Nal = N[C@@H](Cc1cccc2ccccc12)C(=O)O; PEG5 = NCCOCCOCCOCCOCCOCCC(=O)O; NMeNle = CCCC[C@H](NC)C(=O)O; PEG4 = NCCOCCOCCOCCOCCC(=O)O; dDap = NC[C@@H](N)C(=O)O

Key:
[1] = tested on: AR42J tumor-bearing CB17-SCID mice; conditions: 24 h p.i.; cited from earlier work
[2] = target: T1, Human serum albumin (HSA) (Homo sapiens, UniProt P02768); assay: Human serum albumin binding via high performance affinity chromatography (HPAC); format: in vitro ADME; conditions: Chiralpak HSA column
T1 construct: purchased Daicel, Tokyo, Japan H13H-2433
Experimental: Human serum albumin (HSA) binding was determined via high performance affinity chromatography (HPAC), according to previously published protocols. Human serum albumin interaction was calculated according to the retention time (n = 1) of our compounds on a Chiralpak HSA column in dependence of nine reference compounds with known HSA interaction.
Human serum albumin binding was determined via high performance affinity chromatography. Therefore, a Chiralpak HSA column (50 × 3 mm, 5 µm, H13H-2433, Daicel, Tokyo, Japan) was used at a constant flow rate of 0.5 ml/min at room temperature. Mobile phase A consisted of a freshly prepared aqueous solution of NH4OAc (pH = 6.9, 50 mM) and mobile phase B of isopropanol. Calibration of the column was performed daily prior to experiments, by determining the retention times of nine reference substances displaying a HSA binding from 13 to 99%. HPLC gradient for all compounds tested was 100% A (0 to 3 min), followed by 80% A (3 to 40 min). All substances tested, were dissolved in a mixture of A/B (0.5 mg/mL, 1:1, v/v). OriginPro 2016G software (Northampton, United States) was used for non-linear regression and data evaluation.

[3] = Lipophilicity, n-octanol/PBS distribution coefficient logD7.4; format: physicochemical; conditions: 177Lu-labeled peptide; n-octanol/PBS (1/1), n ≥ 5
Experimental: For determination of lipophilicity, the respective ^177Lu-Labeled peptide precursor (~ 1 MBq, 10 µL in 0.04 M HCl) was added to a solution of n-octanol/PBS (1/1, v/v, 1 mL) and vigourously mixed for 3 min at room temperature (n ≥ 5). Afterwards both phases were seperated using a Biofuge 15 centrifuge (Heraus Sepatech GmbH, Osterode, Germany) at 9,000 rpm for 5 min. 200 µL aliquots of both layers were collected separately, measured in a γ-counter (Perkin Elmer, Waltham, MA, USA) and the logD7.4 value was obtained.

T1 sequence (P02768 25-609): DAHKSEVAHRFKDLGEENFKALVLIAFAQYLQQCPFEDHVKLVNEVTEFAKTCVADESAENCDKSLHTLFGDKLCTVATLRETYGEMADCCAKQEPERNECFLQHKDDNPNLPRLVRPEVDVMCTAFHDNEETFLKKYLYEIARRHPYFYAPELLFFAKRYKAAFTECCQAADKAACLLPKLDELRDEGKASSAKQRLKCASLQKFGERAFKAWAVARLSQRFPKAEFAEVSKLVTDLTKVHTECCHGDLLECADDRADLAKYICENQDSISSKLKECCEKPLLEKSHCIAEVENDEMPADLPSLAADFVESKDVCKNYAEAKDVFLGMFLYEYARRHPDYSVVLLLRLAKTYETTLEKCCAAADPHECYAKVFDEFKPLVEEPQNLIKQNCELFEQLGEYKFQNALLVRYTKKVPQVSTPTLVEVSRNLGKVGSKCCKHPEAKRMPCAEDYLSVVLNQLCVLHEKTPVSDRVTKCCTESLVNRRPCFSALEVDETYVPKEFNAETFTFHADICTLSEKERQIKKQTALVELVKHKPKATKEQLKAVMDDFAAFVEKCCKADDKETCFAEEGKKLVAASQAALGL

| Compound | HSA binding ([2]; n = 1) [%] | logD [3] | further results |
| --- | --- | --- | --- |
| CCCC[C@H](NC(=O)[C@H](Cc1c[nH]c2ccccc12)NC(=O)CNC(=O)[C@H](Cc1ccc(O)cc1)NC(=O)[C@H](C)NC(=O)CC[C@@H](NC(=O)CC[C@@H](NC(=O)CC[C@@H](NC(=O)CC[C@@H](NC(=O)CC[C@@H](NC(=O)CC[C@@H](NC(=O)CC[C@@H](NC(=O)CC[C@@H](NC(=O)[C@@H](CNC(=O)c1ccc([Si](F)(C(C)(C)C)C(C)(C)C)cc1)NC(=O)CN1CCN(CC(=O)O)CCN(CC(=O)O)CCN(CC(=O)O)CC1)C(=O)O)C(=O)O)C(=O)O)C(=O)O)C(=O)O)C(=O)O)C(=O)O)C(=O)O)C(=O)N[C@@H](CC(=O)O)C(=O)N[C@@H](Cc1ccccc1)C(N)=O [[^177Lu]Lu-DOTA-rhCCK-18, DOTA-D-Dap(p-SiFA)-(D-γ-Glu)8-Ala-Tyr-Gly-Trp-Nle-Asp-Phe-NH2, metal not drawn] |  |  | activity levels in the bone [1]: 0.20 ± 0.03 %ID/g; activity levels in the liver [1]: 0.22 ± 0.01 %ID/g; activity levels in the spleen [1]: 0.34 ± 0.09 %ID/g; activity levels in the stomach [1]: 4.3 ± 1.1 %ID/g; activity levels in the tumor [1]: 25.4 ± 4.7 %ID/g; activity uptake in the kidneys [1]: 134 ± 18 %ID/g; tumor-to-kidney ratio [1]: 0.19 ± 0.01; HSA binding ([2]; n = 1, listed as [^natLu]Lu-DOTA-rhCCK-18): 87.1% and 87% |
| CCCC[C@@H](C(=O)N[C@@H](CC(=O)O)C(=O)N[C@@H](Cc1cccc2ccccc12)C(N)=O)N(C)C(=O)[C@H](Cc1c[nH]c2ccccc12)NC(=O)CCOCCOCCOCCOCCNC(=O)CC[C@@H](NC(=O)CCOCCOCCOCCOCCOCCNC(=O)[C@@H](CNC(=O)c1ccc([Si](F)(C(C)(C)C)C(C)(C)C)cc1)NC(=O)CN1CCN(CC(=O)O)CCN(CC(=O)O)CCN(CC(=O)O)CC1)C(=O)O [[^nat/177Lu]Lu-DOTA-rhCCK-67, DOTA-D-Dap(p-SiFA)-(PEG)4-B, metal not drawn] ({DOTA}-[dDap](Benzoyl(4-SiFtBu2))[PEG5][d(γGlu)][PEG4]W[NMeNle]D[1Nal]-NH2) | 92.9 | -1.05 ± 0.09 |  |
| CCCC[C@@H](C(=O)N[C@@H](CC(=O)O)C(=O)N[C@@H](Cc1cccc2ccccc12)C(N)=O)N(C)C(=O)[C@H](Cc1c[nH]c2ccccc12)NC(=O)CCOCCOCCOCCOCCNC(=O)CC[C@@H](NC(=O)CCOCCOCCOCCOCCOCCNC(=O)CC[C@@H](NC(=O)[C@@H](CNC(=O)c1ccc([Si](F)(C(C)(C)C)C(C)(C)C)cc1)NC(=O)CN1CCN(CC(=O)O)CCN(CC(=O)O)CCN(CC(=O)O)CC1)C(=O)O)C(=O)O [[^nat/177Lu]Lu-DOTA-rhCCK-68, DOTA-D-Dap(p-SiFA)-D-γ-Glu-(PEG)4-B, metal not drawn] | 91.2 | -1.65 ± 0.09 |  |
| CCCC[C@@H](C(=O)N[C@@H](CC(=O)O)C(=O)N[C@@H](Cc1cccc2ccccc12)C(N)=O)N(C)C(=O)[C@H](Cc1c[nH]c2ccccc12)NC(=O)CCOCCOCCOCCOCCNC(=O)CC[C@@H](NC(=O)CCOCCOCCOCCOCCOCCOCCOCCOCCNC(=O)CC[C@@H](NC(=O)[C@@H](CNC(=O)C[N+](C)(C)Cc1ccc([Si](F)(C(C)(C)C)C(C)(C)C)cc1)NC(=O)CN1CCN(CC(=O)O)CCN(CC(=O)O)CCN(CC(=O)O)CC1)C(=O)O)C(=O)O [[^nat/177Lu]Lu-DOTA-rhCCK-71, DOTA-D-Dap(SiFAlin)-D-γ-Glu-(PEG)7-B, metal not drawn] | 89.1 | -1.63 ± 0.06 |  |
| CCCC[C@@H](C(=O)N[C@@H](CC(=O)O)C(=O)N[C@@H](Cc1cccc2ccccc12)C(N)=O)N(C)C(=O)[C@H](Cc1c[nH]c2ccccc12)NC(=O)CCOCCOCCOCCOCCNC(=O)CC[C@@H](NC(=O)CCOCCOCCOCCOCCOCCOCCOCCOCCNC(=O)CC[C@@H](NC(=O)[C@@H](CNC(=O)c1cc(C(=O)O)cc([Si](F)(C(C)(C)C)C(C)(C)C)c1)NC(=O)CN1CCN(CC(=O)O)CCN(CC(=O)O)CCN(CC(=O)O)CC1)C(=O)O)C(=O)O [[^nat/177Lu]Lu-DOTA-rhCCK-72, DOTA-D-Dap(SiFA-ipa)-D-γ-Glu-(PEG)7-B, metal not drawn] | 89.3 | -2.32 ± 0.03 |  |
| CCCC[C@@H](C(=O)N[C@@H](CC(=O)O)C(=O)N[C@@H](Cc1cccc2ccccc12)C(N)=O)N(C)C(=O)[C@H](Cc1c[nH]c2ccccc12)NC(=O)CCOCCOCCOCCOCCNC(=O)CC[C@@H](NC(=O)CCOCCOCCOCCOCCOCCOCCOCCOCCNC(=O)[C@@H](CNC(=O)c1ccc([Si](F)(C(C)(C)C)C(C)(C)C)cc1)NC(=O)CN1CCN(CC(=O)O)CCN(CC(=O)O)CCN(CC(=O)O)CC1)C(=O)O [[^nat/177Lu]Lu-DOTA-rhCCK-73, DOTA-D-Dap(p-SiFA)-(PEG)7-B, metal not drawn] ({DOTA}-[dDap](Benzoyl(4-SiFtBu2))[PEG8][d(γGlu)][PEG4]W[NMeNle]D[1Nal]-NH2) | 90.4 | -1.02 ± 0.06 |  |
| CCCC[C@@H](C(=O)N[C@@H](CC(=O)O)C(=O)N[C@@H](Cc1cccc2ccccc12)C(N)=O)N(C)C(=O)[C@H](Cc1c[nH]c2ccccc12)NC(=O)CCOCCOCCOCCOCCNC(=O)CC[C@@H](NC(=O)CCOCCOCCOCCOCCOCCOCCOCCOCCOCCOCCOCCOCCNC(=O)[C@@H](CNC(=O)c1ccc([Si](F)(C(C)(C)C)C(C)(C)C)cc1)NC(=O)CN1CCN(CC(=O)O)CCN(CC(=O)O)CCN(CC(=O)O)CC1)C(=O)O [[^nat/177Lu]Lu-DOTA-rhCCK-74, DOTA-D-Dap(p-SiFA)-(PEG)11-B, metal not drawn] ({DOTA}-[dDap](Benzoyl(4-SiFtBu2))[PEG12][d(γGlu)][PEG4]W[NMeNle]D[1Nal]-NH2) | 87.2 | -1.19 ± 0.07 |  |
| CCCC[C@@H](C(=O)N[C@@H](CC(=O)O)C(=O)N[C@@H](Cc1cccc2ccccc12)C(N)=O)N(C)C(=O)[C@H](Cc1c[nH]c2ccccc12)NC(=O)CCOCCOCCOCCOCCNC(=O)CC[C@@H](NC(=O)CCOCCOCCOCCOCCOCCOCCOCCOCCOCCOCCOCCOCCNC(=O)CC[C@@H](NC(=O)[C@@H](CNC(=O)C[N+](C)(C)Cc1ccc([Si](F)(C(C)(C)C)C(C)(C)C)cc1)NC(=O)CN1CCN(CC(=O)O)CCN(CC(=O)O)CCN(CC(=O)O)CC1)C(=O)O)C(=O)O [[^nat/177Lu]Lu-DOTA-rhCCK-75, DOTA-D-Dap(SiFAlin)-D-γ-Glu-(PEG)11-B, metal not drawn] | 90.9 | -1.15 ± 0.05 |  |
| CCCC[C@@H](C(=O)N[C@@H](CC(=O)O)C(=O)N[C@@H](Cc1cccc2ccccc12)C(N)=O)N(C)C(=O)[C@H](Cc1c[nH]c2ccccc12)NC(=O)CCOCCOCCOCCOCCNC(=O)CC[C@@H](NC(=O)CCOCCOCCOCCOCCOCCOCCOCCOCCOCCOCCOCCOCCNC(=O)CC[C@@H](NC(=O)[C@@H](CNC(=O)c1ccc([Si](F)(C(C)(C)C)C(C)(C)C)cc1)NC(=O)CN1CCN(CC(=O)O)CCN(CC(=O)O)CCN(CC(=O)O)CC1)C(=O)O)C(=O)O [[^nat/177Lu]Lu-DOTA-rhCCK-76, DOTA-D-Dap(p-SiFA)-D-γ-Glu-(PEG)11-B, metal not drawn] | 86.2 | -1.82 ± 0.09 |  |
| DOTA-(D-Glu)6-Ala-Tyr-Gly-Trp-Nle-Asp-Phe-NH2 [[^177Lu]Lu-DOTA-PP-F11N] |  |  | activity levels in the tumor [1]: 1.9 ± 0.8 %ID/g; kidney retention [1]: 3.1 ± 0.6 %ID/g |
| DOTA-D-Glu-Ala-Tyr-Gly-Trp-(N-Me)Nle-Asp-1-Nal-NH2 [[^177Lu]Lu-DOTA-MGS5] |  |  | activity levels in the tumor [1]: 11.0 ± 1.2 %ID/g; kidney retention [1]: 1.3 ± 0.4 %ID/g; tumor-to-kidney ratio [1]: 9.4 ± 3.3; tumor-to-stomach ratio [1]: 4.4 ± 0.7 |
